According to patent US20040265323A1, “Compositions comprising pathogen elicited epithelial chemoattractant (eicosanoid hepoxilin A3), inhibitors thereof and methods of use thereof” (priority 2003, published 2004):
Entries after “also recorded” stand apart in the source; their conditions may differ. One block for each molecule: values may come before it.

Tests used:
Assay type in all cases: cell-based, human
[1] = system: PMN transmigration across T84 cell monolayers; assay: PMN transepithelial migration to imposed gradients of lipids across T84 monolayers; settings: imposed gradients across T84 cell monolayers, basolateral-to-apical
Experimental: Crude preparations of PEEC were collected from the apical surface of polarized T84 cell monolayers following infection with S. typhimurium SL1344 as previously described (McCormick et al., 1998). For these experiments, T84 intestinal epithelial cells (passages 45 to 65) were grown in a 1:1 mixture of Dulbecco-Vogt modified Eagles medium and Ham's F-12 medium supplemented with 15 mM Hepes buffer (pH 7.5), 14 mM NaHCO3, 40 mg/liter penicillin, 8 mg/liter ampicillin, 90 mg/liter streptomycin and 5% newborn calf serum. Polarized monolayers of T84 cells were formed and maintained on 0.33 cm^2 ring-supported collagen-coated polycarbonate filters (Costar Corp., Cambridge, Mass.) as previously described (Madara et al., 1992) with recently detailed modifications (Dharmsathaphorn and Madara, 1990). T84 cell monolayers reached a steady-state resistance 4 to 6 days after plating with some variability largely related to cell passage number. Cell culture inserts of inverted monolayers, used to study transmigration of PMN in the physiological basolateral-to-apical direction, were constructed as previously described (Madara et al., 1992; Dharmsathaphorn and Madara, 1990; Nash et al., 1991).
(§1) It was further examined if hepoxilin A3 acts in a gradient fashion to drive PMN migration from the basolateral to the apical epithelial surface. For these experiments, the physiologically directed (basolateral-to-apical) PMN transepithelial migration assay using cell culture inserts of inverted T84 monolayers has been used (McCormick et al., 1993; Parkos et al., 1992). Human PMN were isolated from normal volunteers, as described elsewhere (Parkos et al., 1992; Henson and Oades, 1975). PMN transmigration results were represented as PMN cell equivalents (CE) derived from a daily standard PMN dilution curve. PMN which completely traversed the monolayer were represented as the number of PMN (CE/ml in a total volume of 1 ml). Values were expressed as the mean and SD of an individual experiment done in triplicate repeated at least 3 times.
Arachidonic acid is the initial substrate used by a variety of metabolic pathways involving lipoxygenase (LO) activities—enzymes that add hydroxyl groups at specific carbon atoms of this 20-carbon fatty acid. […] Therefore, in addition to hepoxilin A3, a wide range of arachidonic acid metabolites for their ability to incite the transmigration of PMNs across T84 monolayers in vitro was examined (Table 1). […] This is consistent with previous reports that LTB4 is capable of inducing PMN transmigration.

[2] = system: PEEC/hepoxilin A3 secretion; assay: Apical PEEC/hepoxilin A3 release from S. typhimurium infected T84 cell monolayers
Source text: T84 cell monolayers were infected with S. typhimurium in the absence or presence of the 12-LO enzyme inhibitor and apical supernatants were examined for PEEC bioactivity. […] Moreover, since it had been previously shown that S. typhimurium via its effector SipA initiates an ARF6-dependent lipid-signaling cascade that directs the activation of PKC and release of PEEC, it was further examined if blocking PKC activity (which would occur upstream of 12-LO) also corresponds with a reduction in hepoxilin A3 bioactivity and release, as one would predict.

[3] = system: S. typhimurium-induced PMN transepithelial migration, T84 cells; assay: Inhibition of S. typhimurium-induced PMN transepithelial migration across T84 monolayers; settings: for inhibition of S. typhimurium-induced PMN transepithelial migration: T84 incubated 1 hour with inhibitor, FIG. 9
Source text: as §1, with “PMN transmigration results were represented as PMN cell equivalents (CE) derived from a daily standard PMN dilution curve.” left out
Hepoxilin A3 is formed via the 12-lipoxygenase (LO) metabolism pathway of arachidonic acid. Therefore, the involvement of the 12-LO pathway in the ability of the enteric pathogen, S. typhimurium, to induce PMN transepithelial migration and elicit PEEC secretion was tested. […] For 12-LO inhibition, HBSS(+)-washed T84 cell monolayers were incubated in the presence baicalein [stock concentration at 1 mM in DMSO] for 48 hours at 37° C. Subsequently, S. typhimurium SL1344 was added to the apical surface of the T84 monolayers and after an incubation of 1 hour at 37° C., the cells were washed free of non-adherent bacteria and then processed for the PMN transmigration assay. […] For 5-LO inhibition, the T84 cells were washed with HBSS(+) and then were incubated for 24 hours in the presence of caffeic acid (stock concentration at 22 mM in DMSO). Both inhibitors were purchased form Biomol, Plymouth Meeting, Pa.
In each instance, the T84 cell monolayers were incubated for […] in the presence of the inhibitor prior to the addition of S. typhimurium.

IL-8 secretion = IL-8 secretion by S. typhimurium infected T84 cell monolayers; settings: S. typhimurium infected T84, caffeic acid 22 μM
PMN [4] = assay: PMN intracellular Ca2+ mobilization; settings: 5 μg/ml, FIG. 4B
Source text: Further, crude PEEC preparations were collected from postinfected T84 cells monolayers. Samples were first passed through an Amicon ultra-filtration apparatus (Millipore Corp.; Bedford, Mass.) fitted with a 2,000 Da cut-off membrane. Filtrate components were bound to a Backerbond spe™ octadecyl extraction column (J. T. Baker; Philipsburg, N.J.) that was subsequently eluted with water, hexane, and finally methanol. The methanol fraction was dried under vacuum and resuspended in 50:50 (vol:vol) methanol:2 mM Tris HCl (pH 7.5) and injected onto a Vydac C18 (10 μm; 300 Å) semi-preparative column ([…]) equilibrated with 2 mM Tris-HCl (pH 7.5). A methanol gradient of 1-10% over 10 minutes, then 10-60% over 25 minutes, followed by 60-100% over 45 minutes (all at room temperature) was used to isolate active PEEC fractions. Active fractions, having no detectable absorbance at 280 nm and weak absorbance at 214 nm, were analyzed using a Genesis C18 (4 μm, 120 Å) analytical HPLC column (4.6×150 mm) equilibrated with 5 mM triethylamine/acetic acid (pH 7.2). […] (FIG. 2A and B).
(§2) To substantiate the notion that hepoxilin A3 was in fact the molecule responsible for PEEC bioactivity, it was examined whether synthetic hepoxilin A3 (BIOMOL, Plymouth Meeting, Pa.) could recapitulate PEEC bioactivity. […] Thus, authentic hepoxilin A3 recapitulates all known aspects of PEEC bioactivity consistent with the notion that hepoxilin A3 is in fact PEEC's active component.

PMN [5] = assay: PMN degranulation assessed by elastase release
Source text: as §2

Compound: CCCCC/C=C\C/C=C\C/C=C\C/C=C\CCCC(=O)O [Arachidonic acid]
PMN transepithelial migration (PEEC activity) induced by added lipid [1]: could enhance the amount of PMN transmigration

Compound: CC[C@]1(O)C[C@@H]2CN(CCc3c([nH]c4ccccc34)[C@@](C(=O)OC)(c3cc4c(cc3OC)N(C)[C@H]3[C@@](O)(C(=O)OC)[C@H](OC(C)=O)[C@]5(CC)C=CCN6CC[C@]43[C@@H]65)C2)C1 [vinblastine]
inhibition at 0.0005 µM ([2]; Homo sapiens, ~0.5 nM, pathogen-induced, T84, read-out: inhibition of hepoxilin A3 secreted): ~60%

Compound: CCCCC/C=C\C[C@@H](O)/C=C/C=C/C=C/[C@@H](O)CCCC(=O)O (relative stereo) [trans LTB4]
PMN transepithelial migration (PEEC activity) induced by added lipid [1]: failed to support events observed with hepoxilin A3

Compound: CCCCC[C@H](O)/C=C/C=C\C/C=C\C/C=C\CCCC(=O)O [15(S)-HETE]
PMN transepithelial migration (PEEC activity) induced by added lipid [1]: only a low activity of PMN transmigration was observed

Compound: C=C(CC)C(=O)c1ccc(OCC(=O)O)c(Cl)c1Cl [ethacrynic acid]
inhibition of S. typhimurium-induced PMN transepithelial migration [3]: significantly inhibited

Compound: CCCCC/C=C\C[C@@H]1O[C@H]1C(O)/C=C\C/C=C\CCCC(=O)O (stereo partly shown) [hepoxilin B3]
PMN transepithelial migration (PEEC activity) induced by added lipid [1]: inactive; also recorded: failed to support events observed with hepoxilin A3

Compound: O=C(O)/C=C/c1ccc(O)c(O)c1 [caffeic acid]
S. typhimurium-induced PMN transepithelial migration with lipoxygenase inhibitor ([3]; T84 pre-treated: baicalein 48 hours, caffeic acid 24 hours): failed to prevent S. typhimurium-induced PMN transepithelial migration; also recorded: no inhibition
IL-8 secretion (IL-8 secretion): 558 ± 26 pg/mL

Compound: CCCCC/C=C\C[C@@H](O)/C=C/C=C\C/C=C\CCCC(=O)O [12(R)-HETE]
PMN transepithelial migration (PEEC activity) induced by added lipid [1]: no PMN transmigration activity was observed
intracellular Ca2+ in PMN (PMN [4]): failed to cause an increase in Ca^2+ mobilization

PMN degranulation (PMN [5]): causes activation and degranulation
Compound: CCCCC/C=C\C[C@@H](O)/C=C/C=C/C=C\[C@@H](O)CCCC(=O)O [LTB4]

Compound: CCCCC/C=C\C[C@H](O)/C=C/C=C\C/C=C\CCCC(=O)O [12(S)-HETE]
PMN transepithelial migration (PEEC activity) induced by added lipid [1]: no PMN transmigration activity was observed

Compound: COc1ccc2c(c[n+](C)c3c4cc5c(cc4ccc23)OCO5)c1OC.[Cl-] [chelerethyrine chloride]
PEEC/hepoxilin A3 release ([2]; 5 μM prior to infection with wild-type S. typhimurium): < 1.0 pmol

Compound: CCCCC/C=C\C/C=C\C/C=C\C=C\C(=O)CCCC(=O)O [5-KETE]
PMN transepithelial migration (PEEC activity) induced by added lipid [1]: failed to effect a transmigration of PMNs

Compound: CCCN(CCC)S(=O)(=O)c1ccc(C(=O)O)cc1 [probenecid]
inhibition of S. typhimurium-induced PMN transepithelial migration [3]: significantly inhibited

Compound: CCCCC/C=C\C/C=C\CCCCCCCC(=O)O [linoleic acid]
PMN transepithelial migration (PEEC activity) induced by added lipid [1]: failed to demonstrate any PEEC activity
